# Measurements reported in patent US12233161B1, “Lipids and lipid nanoparticle formulations” (LONGUIDE BIOPHARMA CORPORATION, priority 2024, dated 2025).
# Experiments:
# [1] = Potential characterization of nucleic acid lipid nanoparticle preparations; assay type: physicochemical
# Method in brief: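 Zeta potential was read on a Malvern ZEN3700 after diluting 20 μL lipid nanoparticle solution (about 0.04 mg/mL mRNA) into 780 μL ultrapure water. Alternatively, a 27.5 μL sample in 200 μL water was first sized by dynamic light scattering, then diluted with 600 μL more water for potential measurement.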
# [2] = Particle size and PDI of nucleic acid lipid nanoparticle preparations by dynamic light scattering; assay type: physicochemical
# Method in brief: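 Nanoparticle suspension (about 0.04 mg/mL mRNA) diluted in ultrapure water, mixed by gentle pipetting; particle size measured by dynamic light scattering. Zeta potential measured on the recovered sample after further dilution in ultrapure water.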
# mice = test: In vivo delivery of FLuc-mRNA lipid nanoparticles in mice, in vivo imaging (IVIS)
# Method in brief: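 Mice (n=3) received about 75 μL FLuc-mRNA LNP per mouse intramuscularly (rectus femoris), intravenously (tail vein), intraperitoneally or subcutaneously (back). After injection, D-luciferin (200 μL, 15 mg/mL) was given i.p. 10-15 min before IVIS imaging.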
# [3] = DMG-PEG2000:DSPC:Chol:compound 1.40:11.15:38.95:48.50, N/P 30
# [4] = DSPE-PEG5000:DSPC:Chol:compound 1.40:11.15:38.95:48.50, N/P 30
# [5] = IM, DSPE-PEG5000:DSPC:Chol:compound 1.40:11.15:38.95:48.50, N/P 30, Fluc-mRNA
# [6] = IV, organ not given, DSPE-PEG5000:DSPC:Chol:compound 1.40:11.15:38.95:48.50, N/P 30, Fluc-mRNA
# [7] = DMG-PEG2000:DPPC:Chol:compound 1.40:11.15:38.95:48.50, N/P 30
# [8] = IM, DMG-PEG2000:DPPC:Chol:compound 1.40:11.15:38.95:48.50, N/P 30, Fluc-mRNA
# [9] = IV, body, DMG-PEG2000:DPPC:Chol:compound 1.40:11.15:38.95:48.50, N/P 30, Fluc-mRNA
# [10] = IV, liver, DMG-PEG2000:DPPC:Chol:compound 1.40:11.15:38.95:48.50, N/P 30
# [11] = IV, liver, DMG-PEG2000:DPPC:Chol:compound 1.40:11.15:38.95:48.50, N/P 30, Fluc-mRNA
# [12] = IV, lung, DMG-PEG2000:DPPC:Chol:compound 1.40:11.15:38.95:48.50, N/P 30
# [13] = IV, lung, DMG-PEG2000:DPPC:Chol:compound 1.40:11.15:38.95:48.50, N/P 30, Fluc-mRNA
# [14] = IV, spleen, DMG-PEG2000:DPPC:Chol:compound 1.40:11.15:38.95:48.50, N/P 30
# [15] = IV, spleen, DMG-PEG2000:DPPC:Chol:compound 1.40:11.15:38.95:48.50, N/P 30, Fluc-mRNA
# [16] = mPEG-DMPE:DOPE:Chol:compound 1.40:11.15:38.95:48.50, N/P 24
# [17] = DSPE-PEG5000:DPPC:Chol:compound 1.00:11.15:39.35:48.50, N/P 15
# [18] = mRNA LNP, 1.00:10.00:33.00:56.00, N/P 42
# [19] = mRNA LNP, 1.40:11.15:38.95:48.50, N/P 30
# [20] = mRNA LNP, 1.00:10.00:33.00:56.00, N/P 42, IV, liver
# [21] = mRNA LNP, 1.00:10.00:33.00:56.00, N/P 42, IV, lung
# [22] = mRNA LNP, 1.00:10.00:33.00:56.00, N/P 42, IV, spleen
# [23] = mRNA LNP, 1.40:11.15:38.95:48.50, N/P 30, IV, liver
# [24] = mRNA LNP, 1.40:11.15:38.95:48.50, N/P 30, IV, lung
# [25] = mRNA LNP, 1.40:11.15:38.95:48.50, N/P 30, IV, spleen
smiles,measurement,setting,value
CCCCCCOC(C)OCCCCCCOC(=O)C(O)CN(CCCN(CC(O)C(=O)OCCCCCCOC(C)OCCCCCC)CC(O)C(=O)OCCCCCCOC(C)OCCCCCC)CCCN(CC(O)C(=O)OCCCCCCOC(C)OCCCCCC)CC(O)C(=O)OCCCCCCOC(C)OCCCCCC (stereo not shown) [Compound L0340],Zeta potential (mV),[1]; [3],4.11 mV
same,PDI,[2]; [3],0.12
same,Particle size (nm),[2]; [3],125.77 nm
same,IVIS,"mice; IM, DMG-PEG2000:DSPC:Chol:compound 1.40:11.15:38.95:48.50, N/P 30, Fluc-mRNA",4.87E+07
same,IVIS,"mice; IV, body, DMG-PEG2000:DSPC:Chol:compound 1.40:11.15:38.95:48.50, N/P 30, Fluc-mRNA",9.07E+07
same,% of organ targeting,"mice; IV, liver, DMG-PEG2000:DSPC:Chol:compound 1.40:11.15:38.95:48.50, N/P 30",65.77%
same,IVIS,"mice; IV, liver, DMG-PEG2000:DSPC:Chol:compound 1.40:11.15:38.95:48.50, N/P 30, Fluc-mRNA",2.85E+07
same,% of organ targeting,"mice; IV, lung, DMG-PEG2000:DSPC:Chol:compound 1.40:11.15:38.95:48.50, N/P 30",1.45%
same,IVIS,"mice; IV, lung, DMG-PEG2000:DSPC:Chol:compound 1.40:11.15:38.95:48.50, N/P 30, Fluc-mRNA",6.29E+05
same,% of organ targeting,"mice; IV, spleen, DMG-PEG2000:DSPC:Chol:compound 1.40:11.15:38.95:48.50, N/P 30",32.78%
same,IVIS,"mice; IV, spleen, DMG-PEG2000:DSPC:Chol:compound 1.40:11.15:38.95:48.50, N/P 30, Fluc-mRNA",1.42E+07
CCCCCCCCCCCCN(C)C(=O)C(O)CN(C)CCN(C)CCN(C)CC(O)C(=O)N(C)CCCCCCCCCCCC (stereo not shown) [Compound L0341],Zeta potential (mV),[1]; [4],7.85 mV
same,PDI,[2]; [4],0.18
same,Particle size (nm),[2]; [4],212.5 nm
same,IVIS,mice; [5],9.99E+04
same,IVIS,mice; [6],4.10E+05
CCCCCCCCCCCCN(C)C(=O)C(O)CN(CCCN(CC(O)C(=O)N(C)CCCCCCCCCCCC)CC(O)C(=O)N(C)CCCCCCCCCCCC)CCCN(CC(O)C(=O)N(C)CCCCCCCCCCCC)CC(O)C(=O)N(C)CCCCCCCCCCCC (stereo not shown) [Compound L0342],Zeta potential (mV),[1]; [4],5.68 mV
same,PDI,[2]; [4],0.24
same,Particle size (nm),[2]; [4],73.79 nm
same,IVIS,mice; [5],2.02E+07
same,IVIS,mice; [6],5.77E+06
CCCCCCCCCCCCN(C)C(=O)C(O)CN(C)CCCN(C)CCCN(C)CC(O)C(=O)N(C)CCCCCCCCCCCC (stereo not shown) [Compound L0343],Zeta potential (mV),[1]; [7],4.33 mV
same,PDI,[2]; [7],0.24
same,Particle size (nm),[2]; [7],116.17 nm
same,IVIS,mice; [8],9.39E+04
same,IVIS,"mice; IV, organ not given, DMG-PEG2000:DPPC:Chol:compound 1.40:11.15:38.95:48.50, N/P 30, Fluc-mRNA",2.20E+05
CCCCCCCCCCCCN(C)C(=O)C(O)CN(CCN(C)CCN(CC(O)C(=O)N(C)CCCCCCCCCCCC)CC(O)C(=O)N(C)CCCCCCCCCCCC)CC(O)C(=O)N(C)CCCCCCCCCCCC (stereo not shown) [Compound L0344],Zeta potential (mV),[1]; [7],16.13 mV
same,PDI,[2]; [7],0.26
same,Particle size (nm),[2]; [7],89.56 nm
same,IVIS,mice; [8],8.28E+04
same,IVIS,mice; [9],1.91E+06
same,% of organ targeting,mice; [10],2.01%
same,IVIS,mice; [11],1.15E+05
same,% of organ targeting,mice; [12],93.07%
same,IVIS,mice; [13],5.32E+06
same,% of organ targeting,mice; [14],4.92%
same,IVIS,mice; [15],2.81E+05
CCCCCCCCCCCCN(C)C(=O)C(O)CN(CCCN(C)CCCN(CC(O)C(=O)N(C)CCCCCCCCCCCC)CC(O)C(=O)N(C)CCCCCCCCCCCC)CC(O)C(=O)N(C)CCCCCCCCCCCC (stereo not shown) [Compound L0345],Zeta potential (mV),[1]; [7],10.25 mV
same,PDI,[2]; [7],0.19
same,Particle size (nm),[2]; [7],81.64 nm
same,IVIS,mice; [8],3.56E+05
same,IVIS,mice; [9],2.28E+06
same,% of organ targeting,mice; [10],1.89%
same,IVIS,mice; [11],1.27E+05
same,% of organ targeting,mice; [12],90.22%
same,IVIS,mice; [13],6.05E+06
same,% of organ targeting,mice; [14],7.89%
same,IVIS,mice; [15],5.29E+05
CCCCCCCCCCN(C)C(=O)C(O)CN(CCCN(C)CCCN(CC(O)C(=O)N(C)CCCCCCCCCC)CC(O)C(=O)N(C)CCCCCCCCCC)CC(O)C(=O)N(C)CCCCCCCCCC (stereo not shown) [Compound L0347],Zeta potential (mV),[1]; [16],10.83 mV
same,PDI,[2]; [16],0.10
same,Particle size (nm),[2]; [16],148.60 nm
same,IVIS,"mice; IM, mPEG-DMPE:DOPE:Chol:compound 1.40:11.15:38.95:48.50, N/P 24, Fluc-mRNA",6.65E+04
same,IVIS,"mice; IV, body, mPEG-DMPE:DOPE:Chol:compound 1.40:11.15:38.95:48.50, N/P 24, Fluc-mRNA",3.20E+06
same,% of organ targeting,"mice; IV, liver, mPEG-DMPE:DOPE:Chol:compound 1.40:11.15:38.95:48.50, N/P 24",1.47%
same,IVIS,"mice; IV, liver, mPEG-DMPE:DOPE:Chol:compound 1.40:11.15:38.95:48.50, N/P 24, Fluc-mRNA",1.56E+05
same,% of organ targeting,"mice; IV, lung, mPEG-DMPE:DOPE:Chol:compound 1.40:11.15:38.95:48.50, N/P 24",86.45%
same,IVIS,"mice; IV, lung, mPEG-DMPE:DOPE:Chol:compound 1.40:11.15:38.95:48.50, N/P 24, Fluc-mRNA",9.16E+06
same,% of organ targeting,"mice; IV, spleen, mPEG-DMPE:DOPE:Chol:compound 1.40:11.15:38.95:48.50, N/P 24",12.08%
same,IVIS,"mice; IV, spleen, mPEG-DMPE:DOPE:Chol:compound 1.40:11.15:38.95:48.50, N/P 24, Fluc-mRNA",1.28E+06
CCCCCCCCCCN(C)C(=O)C(O)CN(C)CCN(C)CCN(C)CC(O)C(=O)N(C)CCCCCCCCCC (stereo not shown) [Compound L0348],Zeta potential (mV),[1]; [17],5.54 mV
same,PDI,[2]; [17],0.14
same,Particle size (nm),[2]; [17],118.20 nm
same,IVIS,"mice; Fluc-mRNA LNP, route IM, organ not given, formulation, molar ratio and N/P as in the table",3.49E+05
same,IVIS,"mice; IV, organ not given, DSPE-PEG5000:DPPC:Chol:compound 1.00:11.15:39.35:48.50, N/P 15, Fluc-mRNA",4.84E+05
"CCCCCCCCCCCCNC(=O)CCN(CCCN(C)CCCN(CCC(=O)NCCCCCCCCCCCC)CCC(=O)NCCCCCCCCCCCC)CCC(=O)NCCCCCCCCCCCC [L0263-Control, reference compound]",Zeta potential (mV),[1]; [18],11.13 mV
same,Zeta potential (mV),[1]; [19],10.97 mV
same,PDI,[2]; [18],0.13
same,Particle size (nm),[2]; [18],112.27 nm
same,PDI,[2]; [19],0.16
same,Particle size (nm),[2]; [19],102.50 nm
same,% of organ targeting,mice; [20],0.59%
same,IVIS,mice; [20],5.33E+06
same,% of organ targeting,mice; [21],97.16%
same,IVIS,mice; [21],8.80E+08
same,% of organ targeting,mice; [22],2.25%
same,IVIS,mice; [22],2.04E+07
same,IVIS,"mice; mRNA LNP, 1.40:11.15:38.95:48.50, N/P 30, IM, organ not given",7.79E+05
same,% of organ targeting,mice; [23],1.59%
same,IVIS,mice; [23],3.11E+06
same,% of organ targeting,mice; [24],80.11%
same,IVIS,mice; [24],1.57E+08
same,% of organ targeting,mice; [25],18.30%
same,IVIS,mice; [25],3.59E+07
same,IVIS,"mice; mRNA LNP, DMG-PEG2000:DSPC:Chol:lipid 1.00:10.00:33.00:56.00, N/P 42, IV, body",1.28E+08
same,IVIS,"mice; mRNA LNP, DMG-PEG2000:DSPC:Chol:lipid 1.40:11.15:38.95:48.50, N/P 30, IV, body",5.69E+07
